Measured values reported in US8309558B2, “Compounds for the treatment of hepatitis C” (Bristol-Myers Squibb Company, priority 2008, dated 2012).

Test system: HCV replicon cells
Assay: HCV replicon FRET / luciferase assay (96-well plates)
Assay type: cell-based
Settings: Hepatitis C virus, 24 h, Table 1d (class symbols); HCV replicon; read-out: EC50
Text: FRET Assay Preparation. To perform the HCV FRET screening assay, 96-well cell culture plates were used. The FRET peptide (Anaspec, Inc.) (Taliani et al., Anal. Biochem. 1996, 240, 60-67) contains a fluorescence donor, EDANS, near one end of the peptide and an acceptor, DABCYL, near the other end. The fluorescence of the peptide is quenched by […] resonance energy transfer (RET) between the donor and the acceptor, but as the NS3 protease cleaves the peptide the products are released from RET quenching and the fluorescence of the donor becomes apparent. The assay reagent was made as follows: 5× cell Luciferase cell culture lysis reagent from Promega (#E153A) diluted to 1× with dH2O, NaCl added to 150 mM final, the FRET peptide diluted to 20 μM final from a 2 mM stock.
To prepare plates, HCV replicon cells, with or without a Renilla luciferase reporter gene, were trypsinized and placed into each well of a 96-well plate with titrated test compounds added in columns 3 through 12; columns 1 and 2 contained a control compound (HCV protease inhibitor), and the bottom row contained cells without compound. The plates were then placed in a CO2 incubator at 37° C.
Assays. Subsequent to addition of the test compounds described above (FRET Assay Preparation), at various times the plate was removed and Alamar blue solution (Trek Diagnostics, #00-100) was added per well as a measure of cellular toxicity. After reading in a Cytoflour 4000 instrument (PE Biosystems), plates were rinsed with PBS and then used for FRET assay by the addition of 30 ul of the FRET peptide assay reagent described above (FRET Assay Preparation) per well. The plate was then placed into the Cytoflour 4000 instrument which had been set to 340 excite/490 emission, automatic mode for 20 cycles and the plate read in a kinetic mode. Typically, the signal to noise using an endpoint analysis after the reads was at least three-fold. Alternatively, after Alamar blue reading, plates were rinsed with PBS, 50 ul of DMEM (high glucose) without phenol red was added and plates were then used for luciferase assay using the Promega Dual-Glo Luciferase Assay System.
Compound analysis was determined by quantification of the relative HCV replicon inhibition and the relative cytotoxicity values. To calculate cytoxicity values, the average Alamar Blue fluorescence signals from the control wells were set as 100% non-toxic. The individual signals in each of the compound test wells were then divided by the average control signal and multiplied by 100% to determine […]. To calculate the HCV replicon inhibition values, an average background value was obtained from the two wells containing the highest amount of HCV protease inhibitor at the end of the assay period. These numbers were similar to those obtained from naïve Huh-7 cells.
The background numbers were then subtracted from the average signal obtained from the control wells and this number was used as 100% activity. The individual signals in each of the compound test wells were then divided by the averaged control values after background subtraction and multiplied by 100% to determine percent activity. EC50 values for a protease inhibitor titration were calculated as the concentration which caused a 50% reduction in FRET or luciferase activity. The two numbers generated for the compound plate, percent cytoxicity and percent activity were used to determine compounds of interest for further analysis.

SMILES	EC50 [nM]
CNC(=O)c1c(-c2ccc(F)cc2)oc2ccc(-c3cc(C(=O)NC4(C(=O)Nc5nc(C)no5)CC4)c(OC)cc3C)cc12	1 to 250
CNC(=O)c1c(-c2ccc(F)cc2)oc2ccc(-c3cc(C(=O)NC4(c5ccccn5)CC4)c(OCC4CCCCO4)cc3C)cc12 (stereo not shown)	1 to 250
CNC(=O)c1c(-c2ccc(F)cc2)oc2ccc(-c3cc(C(=O)NC(C)(C)C)ccc3OC)c(F)c12	1 to 250
CNC(=O)c1c(-c2ccc(F)cc2)oc2ccc(-c3cc(C(=O)NC4(c5ncoc5C)CC4)c(OC)cc3C)cc12 [drawing 637]	1 to 250
CNC(=O)c1c(-c2ccc(F)cc2)oc2ccc(-c3cc(C(=O)NC4(c5ccccn5)CC4)c(OCC(=O)OC)cc3C)cc12 [drawing 642]	250 to 1000
CNC(=O)c1c(-c2ccc(F)cc2)oc2ccc(-c3cc(C(=O)NC4(c5ccncn5)CC4)ccc3C)cc12 [drawing 684]	1 to 250
CNC(=O)c1c(-c2ccc(F)cc2)oc2ccc(-c3cc(C(=O)NC4(c5ncc(F)cn5)CC4)c(OC)cc3C)c(F)c12 [drawing 689]	1 to 250
CNC(=O)c1c(-c2ccc(F)cc2)oc2ccc(-c3cc(C(=O)NC4(c5ccnnc5)CC4)c(OC)cc3C)c(F)c12 [drawing 701]	1 to 250

Same assay, conditions: Hepatitis C virus, 24 h, second table titled Table 1d (numbers); HCV replicon; read-out: EC50

SMILES	EC50 [nM]
CNC(=O)c1c(-c2ccc(F)cc2)oc2ccc(-c3cc(C(=O)NC4(c5ncoc5C)CC4)c(OC)cc3C)cc12 [drawing 709]	2
CNC(=O)c1c(-c2ccc(F)cc2)oc2ccc(-c3cc(C(=O)NC4(c5ccccn5)CC4)c(OCC(=O)OC)cc3C)cc12 [drawing 710]	210
CNC(=O)c1c(-c2ccc(F)cc2)oc2ccc(-c3cc(C(=O)NC4(c5ccncn5)CC4)ccc3C)cc12 [drawing 713]	2
CNC(=O)c1c(-c2ccc(F)cc2)oc2ccc(-c3cc(C(=O)NC4(c5ncc(F)cn5)CC4)c(OC)cc3C)c(F)c12 [drawing 714]	10
CNC(=O)c1c(-c2ccc(F)cc2)oc2ccc(-c3cc(C(=O)NC4(c5ccnnc5)CC4)c(OC)cc3C)c(F)c12 [drawing 715]	56

Same assay, conditions: Hepatitis C virus, Table 1a; HCV replicon; read-out: EC50

SMILES	EC50 [nM]
CNC(=O)c1c(-c2ccc(F)cc2)oc2ccc(OCC(=O)NCc3ccco3)cc12	1000 to 10000
CNC(=O)c1c(-c2ccc(F)cc2)oc2ccc(OCC(=O)NCc3nc4ccccc4s3)cc12	1000 to 10000

Same assay, conditions: Hepatitis C virus, Table 1b; HCV replicon; read-out: EC50

SMILES	EC50 [nM]
CCOc1ccc(C(=O)NCC(C)C)cc1-c1ccc2oc(-c3ccc(F)cc3)c(C(=O)NC)c2c1	< 250
CNC(=O)c1c(-c2ccc(F)cc2)oc2ccc(-c3ccc(-c4cccnc4)c(C(=O)NCC(C)C)c3)cc12	< 250
CCOc1cccc(-c2ccc(-c3ccc4oc(-c5ccc(F)cc5)c(C(=O)NC)c4c3)cc2C(=O)NCC(C)C)c1	< 250
CNC(=O)c1c(-c2ccc(F)cc2)oc2ccc(-c3ccc(CCC(C)C)c(C(=O)NCC(C)C)c3)cc12	> 10000
CNC(=O)c1c(-c2ccc(F)cc2)oc2ccc(-c3ccc(-c4cccc(C(=O)O)c4)c(C(=O)NCC(C)C)c3)cc12	1000 to 10000
CCCn1cc(-c2ccc(-c3ccc4oc(-c5ccc(F)cc5)c(C(=O)NC)c4c3)cc2C(=O)NCC(C)C)cn1	< 250
CNC(=O)c1c(-c2ccc(F)cc2)oc2ccc(-c3ccc(-c4ccccc4CO)c(C(=O)NCC(C)C)c3)cc12	< 250
CNC(=O)c1c(-c2ccc(F)cc2)oc2ccc(-c3ccc(-c4ccoc4)c(C(=O)NCC(C)C)c3)cc12	< 250
CNC(=O)c1c(-c2ccc(F)cc2)oc2ccc(-c3cc(C(=O)NCC(C)C)ccc3OCCN(Cc3ccccc3)Cc3ccccc3)cc12	1000 to 10000
CNC(=O)c1c(-c2ccc(F)cc2)oc2cc(N(CCO)S(C)(=O)=O)c(-c3cccc(C(=O)NC(C)(C)c4ccncc4)c3)cc12	< 250
CNC(=O)c1c(-c2ccc(F)cc2)oc2cc(N(CCO)S(C)(=O)=O)c(-c3cccc(C(=O)NC(C)(C)c4ccnc(C)c4)c3)cc12	< 250
CNC(=O)c1c(-c2ccc(F)cc2)oc2ccc(-c3cccc(C(=O)NC(C)(C)c4ccccn4)c3)cc12	< 250
CNC(=O)c1c(-c2ccc(F)cc2)oc2ccc(-c3cccc(C(=O)NC(C)(C)c4cccc(C)n4)c3)cc12	250 to 1000
CNC(=O)c1c(-c2ccc(F)cc2)oc2cc(NS(C)(=O)=O)c(/C=C/C(=O)OC(C)(C)C)cc12	1000 to 10000
CNC(=O)c1c(-c2ccc(F)cc2)oc2ccc(-c3cc(C(=O)NCC(C)C)ccc3OCCCN3C(=O)c4ccccc4C3=O)cc12	> 10000
CNC(=O)c1c(-c2ccc(F)cc2)oc2ccc(-c3cc(C(=O)NC4(c5ccccn5)CC4)ccc3C3CC3)cc12	> 10000
CNC(=O)c1c(-c2ccc(F)cc2)oc2ccc(-c3cc(C(=O)O)ccc3OC(F)(F)F)cc12	> 10000
CNC(=O)c1c(-c2ccc(F)cc2)oc2ccc(-c3cc(C(=O)NC4(c5noc(-c6ccccc6)n5)CC4)ccc3C)cc12	< 250
CNC(=O)c1c(-c2ccc(F)cc2)oc2ccc(-c3cc(C(=O)NC4(c5noc(C)n5)CC4)c(OC)cc3Cl)cc12	< 250
CNC(=O)c1c(-c2ccc(F)cc2)oc2ccc(-c3cc(C(=O)NC4(c5noc(C)n5)CC4)c(OC)cc3C)cc12	< 250
CNC(=O)c1c(-c2ccc(F)cc2)oc2ccc(-c3cc(C(=O)NC4(c5nnc(-c6ccccc6OC)[nH]5)CC4)ccc3C)cc12	< 250
CCCc1nnc(C2(NC(=O)c3ccc(C)c(-c4ccc5oc(-c6ccc(F)cc6)c(C(=O)NC)c5c4)c3)CC2)[nH]1	< 250
CNC(=O)c1c(-c2ccc(F)cc2)oc2ccc(-c3ccc(-c4ccccc4Cl)c(C(=O)NC4(c5ccccn5)CC4)c3)cc12	< 250
CNC(=O)c1c(-c2ccc(F)cc2)oc2ccc(-c3cc(C(=O)NC4(c5cncnc5)CC4)ccc3C)cc12	< 250
CNC(=O)c1c(-c2ccc(F)cc2)oc2ccc(-c3cc(C(=O)OC)c(OC)cc3OCC(N)=O)cc12	1000 to 10000
CCNC(=O)c1cc(-c2ccc3oc(-c4ccc(F)cc4)c(C(=O)NC)c3c2F)c(C)cc1OC	< 250
CNC(=O)c1c(-c2ccc(F)cc2)oc2ccc(-c3cc(C(=O)NC4(c5cc(C)on5)CC4)ccc3C)cc12	< 250
CNC(=O)c1c(-c2ccc(F)cc2)oc2ccc(-c3cc(C(=O)NC4(c5cn(C)cn5)CC4)c(OC)cc3C)cc12	< 250
CNC(=O)c1c(-c2ccc(F)cc2)oc2ccc(-c3cc(C(=O)NC4(c5ncc(C)s5)CC4)c(OC)cc3C)cc12	< 250
CNC(=O)c1c(-c2ccc(F)cc2)oc2ccc(-c3cc(C(=O)NC4(c5nc(C)no5)CC4)ccc3C)cc12 [drawing 478]	< 250

Same assay, conditions: Table 1b; HCV replicon; read-out: EC50

SMILES	EC50 [nM]
CNC(=O)c1c(-c2ccc(F)cc2)oc2ccc(-c3cc(C(=O)NCC(C)C)ccc3OCCC3CNCCO3)cc12 (stereo not shown) [drawing 567]	< 250
